In US20060276445A1, “Bicyclic 6-alkylidene-penems as class-D beta-lactamases inhibitors” (priority 2005, published 2006):

Legend:
[1] = test system: E. coli GC 2883 (OXA-10 + PSE-2); test: Antimicrobial susceptibility testing, microbroth dilution (NCCLS), piperacillin combined with β-lactamase inhibitor; format: cell-based; conditions: MIC of piperacillin combined with a constant amount (4 ug/ml) of the inhibitor; class-D producing E. coli GC 2883 (OXA-10 + PSE-2); 35° C. for 18 hours
Method: Antimicrobial susceptibility testing. The in vitro activities of the antibiotic, piperacillin in this case, against resistant pathogens expressing class-D enzymes were determined by the microbroth dilution method as recommended by the National Committee for Clinical Laboratory Standards (NCCLS). (NCCLS. 2000. Methods for Dilution Antimicrobial Susceptibility Tests for Bacteria That Grow Aerobically; Approved Standards: M7-A5, vol. 19. National Committee for Clinical Laboratory Standards, Villanova, Pa.). Mueller-Hinton II broth (MHBII)(BBL Cockeysville, Md.), was used for the testing procedure. Microtiter plates containing 50 μL per well of two-fold serial dilutions of piperacillin combined with a constant amount (4 ug/ml) of a B-lactamase inhibitor were inoculated with 50 μL of inoculum to yield the appropriate density (10^5 CFU/mL) in 100 μL final volume. The plates were incubated for 18-22 hours at 35° C. in ambient air. […] The MIC50 data obtained by the above said procedure are enlisted in Table 1. […] Both OXA-10 and PSE-2 are class D β-lactamases. (Bush, K. Jacoby, G. A., Medeiros, A. A. Antimicrob. Agents Chemother., 1995, 39, 1211.)

SMILES: O=C(O)C1=CS[C@@H]2/C(=C\c3cnc4n3CCSC4)C(=O)N12 [Example 30, (5R),(6Z)-6-(5,6-Dihydro-8-H-imidazo[2,1-c][1,4]thiazin-3-ylmethylene)-7-oxo-4-thia-1-azabicyclo[3.2.0]hept-2-ene-2-carboxylic acid]
- Minimal Inhibitory Concentration (MIC50) Data [1]: 4 µg/mL

SMILES: O=C(O)C1=CS[C@@H]2/C(=C\c3cc4c(s3)CCN(Cc3ccccc3)C4)C(=O)N12 [Example 1, (5R,6Z)-6-[(5-benzyl-4,5,6,7-tetrahydrothieno[3,2-c]pyridin-2-yl)methylene]-7oxo-4-thia-1-azabicyclo[3.2.0]hept-2-ene-2-carboxylic acid]
- melting point: 198 °C

SMILES: CN1Cc2nc(/C=C3/C(=O)N4C(C(=O)[O-])=CS[C@H]34)cn2CC1=O.[Na+] [Example 10, (5R),(6Z)-6-(7-Methyl-6-oxo-5,6,7,8-tetrahydro-imidazo[1,2-a]pyrazin-2-ylmethylene)-7-oxo-4-thia-1-aza-bicyclo[3.2.0]hept-2-ene-2-carboxylic acid sodium salt]
- Minimal Inhibitory Concentration (MIC50) Data [1]: 8 µg/mL

SMILES: O=C([O-])C1=CS[C@@H]2/C(=C\c3cn4c(n3)COCC4)C(=O)N12.[Na+] [Example 7, (5R),(6Z)-6-(5,6-Dihydro-8H-imidazo[2,1-c][1,4]oxazin-2-ylmethylene)-7-oxo-4-thia-1-azabicyclo[3.2.0]hept-2-ene-2-carboxylic acid, sodium salt]
- Minimal Inhibitory Concentration (MIC50) Data [1]: 4 µg/mL

SMILES: O=C(O)C1=CS[C@@H]2/C(=C\c3cc4c(s3)CCN(Cc3cccnc3)C4)C(=O)N12 [Example 21]
- Minimal Inhibitory Concentration (MIC50) Data [1]: 8 µg/mL

SMILES: O=C([O-])C1=CS[C@@H]2/C(=C\c3cc4n(n3)CCN(C3=NCCS3)C4)C(=O)N12.[Na+] [Example 38, (5R),(6Z)-6-[5-(4,5-Dihydrothiazol-2-yl)-4,5,6,7-tetrahydropyrazolo[1,5-a]pyrazin-2-ylmethylene]-7-oxo-4-thia-1-azabicyclo[3.2.0]hept-2-ene-2-carboxylic acid sodium salt]
- Minimal Inhibitory Concentration (MIC50) Data [1]: 2 µg/mL

SMILES: CN1CCc2sc(C=C3C(=O)N4C(C(=O)O)=CSC34)cc2C1 (centres unmarked) [Example 17, 6-(5-Methyl-4,5,6,7-tetrahydro-thieno[3,2-c]pyridin-2-ylmethylene)-7-oxo-4-thia-1-aza-bicyclo[3.2.0]hept-2-ene-2-carboxylic acid]
- melting point: > 250 °C

SMILES: O=C([O-])C1=CS[C@@H]2/C(=C\c3cn4c(n3)CNCC4)C(=O)N12.[Na+] [Example 3, (5R),(6Z)-7-Oxo-6-(5,6,7,8-tetrahydroimidazo[1,2-a]pyrazin-2-ylmethylene)-4-thia-1-azabicyclo[3.2.0]hept-2-ene-2-carboxylic acid, sodium salt]
- Minimal Inhibitory Concentration (MIC50) Data [1]: 2 µg/mL

SMILES: CCOC(=O)N1CCc2sc(C=C3C(=O)N4C(C(=O)O)=CSC34)cc2C1 (centres unmarked) [Example 18, 2-(2-Carboxy-7-oxo-4-thia-1-aza-bicyclo[3.2.0]hept-2-en-6-ylidenemethyl)-6,7-dihydro-4H-thieno[3,2-c]pyridine-5-carboxylic acid ethyl ester]
- melting point: > 250 °C

SMILES: O=C(O)C1=CS[C@@H]2/C(=C\c3cc4c(s3)CCN(C(=O)Cc3ccccc3)C4)C(=O)N12 [Example 23]
- Minimal Inhibitory Concentration (MIC50) Data [1]: 8 µg/mL

SMILES: CC1(C)Cn2cc(/C=C3/C(=O)N4C(C(=O)[O-])=CS[C@H]34)nc2CN1.[Na+] [Example 29, (5R),(6Z)-6-(6,6-Dimethyl-5,6,7,8-tetrahydroimidazo[1,2-a]pyrizin-2-ylmethylene)-7-oxo-4-thia-1-azabicyclo[3.2.0]hept-2-ene-2-carboxylic acid, sodium salt]
- Minimal Inhibitory Concentration (MIC50) Data [1]: 4 µg/mL

SMILES: O=C([O-])CCC(=O)N1CCn2nc(/C=C3/C(=O)N4C(C(=O)[O-])=CS[C@H]34)cc2C1.[Na+].[Na+] [Example 36, (5R),(6Z)-6-[5-(3-carboxypropionyl)-4,5,6,7-tetrahydropyrazolo[1,5-a]pyrazin-2-ylmethylene]-7-oxo-4-thia-1-azabicyclo[3.2.0]hept-2-ene-carboxylic acid, disodium salt]
- Minimal Inhibitory Concentration (MIC50) Data [1]: 4 µg/mL

SMILES: COc1ccc(CN2CCc3sc(/C=C4/C(=O)N5C(C(=O)O)=CS[C@H]45)cc3C2)cc1 [Example 4]
- Minimal Inhibitory Concentration (MIC50) Data [1]: 4 µg/mL

SMILES: O=C([O-])C1=CS[C@@H]2/C(=C\c3cc4n(n3)CCNC4)C(=O)N12.[Na+] [Example 25, (5R),(6Z)-7-Oxo-6-(4,5,6,7-tetrahydropyrazolo[1,5-a]pyrazin-2-ylmethylene)-4-thia-1-aza-bicyclo[3.2.0]hept-2-ene-2-carboxylic acid, sodium salt]
- Minimal Inhibitory Concentration (MIC50) Data [1]: 4 µg/mL

SMILES: O=C([O-])C1=CS[C@@H]2/C(=C\c3cc4c(o3)CCC4)C(=O)N12.[Na+] [Example 27, (5R),(6Z)-6-(5,6-Dihydro-4H-cyclopenta[b]furan-2-ylmethylene)-7-oxo-4-thia-1-azabicyclo[3.2.0]hept-2-ene-2-carboxylic acid, sodium salt]
- Minimal Inhibitory Concentration (MIC50) Data [1]: 2 µg/mL

SMILES: O=C(O)C1=CS[C@@H]2/C(=C\c3cc4c(s3)CCN(C(=O)c3cccnc3)C4)C(=O)N12 [Example 22]
- Minimal Inhibitory Concentration (MIC50) Data [1]: 16 µg/mL

SMILES: CC(=O)N1CCc2sc(/C=C3/C(=O)N4C(C(=O)O)=CS[C@H]34)cc2C1 [Example 33, (5R,6Z)-6-[(5-acetyl-4,5,6,7-tetrahydrothieno[3,2-c]pyridin-2-yl)methylene]-oxo-4-thia-1-azabicyclo[3.2.0.]hept-2-ene-2-carboxylic acid]
- Minimal Inhibitory Concentration (MIC50) Data [1]: 16 µg/mL

SMILES: O=C([O-])C1=CS[C@@H]2/C(=C\c3cc4n(n3)CCCO4)C(=O)N12.[Na+] [Example 35, (5R)(6Z)-6-(6,7-5H-Dihydropyrazolo[5,1-b]oxazin-2-Ylmethylene)-7-oxo-4-thia-1-azabicyclo[3.2.1]hept-2-ene-2-carboxylic acid, sodium salt]
- Minimal Inhibitory Concentration (MIC50) Data [1]: 2 µg/mL

SMILES: COCC(=O)N1CCn2nc(/C=C3/C(=O)N4C(C(=O)[O-])=CS[C@H]34)cc2C1.[Na+] [Example 37, (5R),(6Z)-6-[5-(2-methoxyacetyl)-4,5,6,7-tetrahydropyrazolo[1,5-a]pyrazin-2-ylmethylene]-7-oxo-4-thia-1-azabicyclo[3.2.0]hept-2-ene-carboxylic acid, sodium salt]
- Minimal Inhibitory Concentration (MIC50) Data [1]: 2 µg/mL

SMILES: O=C([O-])C1=CS[C@@H]2/C(=C\c3cn4c(n3)CSCC4)C(=O)N12.[Na+] [Example 5, (5R),(6Z)-6-(5,6-dihydro-8H-imidazo[2,1-c][1.4]thiazin-2-ylmethylene)-7-oxo-4-thia-1-azabicyclo[3.2.0]hept-2-ene-2-carboxylic acid, sodium salt]
- Minimal Inhibitory Concentration (MIC50) Data [1]: 2 µg/mL

SMILES: CN1CCn2cc(/C=C3/C(=O)N4C(C(=O)[O-])=CS[C@H]34)nc2C1.[Na+] [Example 2, (5R),(6Z)-6-(7-Methyl-5,6,7,8-tetrahydroimidazo[1,2-a]pyrazin-2-ylmethylene)-7-oxo-4-thia-1-aza-bicyclo[3.2.0]hept-2-ene-2-carboxylic acid, sodium salt]
- Minimal Inhibitory Concentration (MIC50) Data [1]: 4 µg/mL

SMILES: CC1(C)Cc2cc(/C=C3/C(=O)N4C(C(=O)[O-])=CS[C@H]34)nn2C1.[Na+] [Example 26, (5R)(6Z)-6-(5,5-Dimethyl-4H-1.6a-diazapentalen-2-ylmethylene)-7-oxo-4-thia-1-azabicyclo[3.2.0]hept-2-ene-2-carboxylic acid, sodium salt]
- Minimal Inhibitory Concentration (MIC50) Data [1]: 4 µg/mL

SMILES: O=C([O-])C1=CS[C@@H]2/C(=C\c3cn4c(n3)CN(Cc3ccccc3)CC4)C(=O)N12.[Na+] [Example 20, (5R),(6Z)-6-(7-Benzyl-5,6,7,8-tetrahydroimidazo[1,2-a]pyrazin-2-ylmethylene)-7-oxo-4-thia-1-azabicyclo[3.2.0]hept-2-ene-2-carboxylic acid, sodium salt]
- Minimal Inhibitory Concentration (MIC50) Data [1]: 16 µg/mL

SMILES: O=C([O-])C1=CS[C@@H]2/C(=C\c3cc4n(n3)CCS(=O)(=O)C4)C(=O)N12.[Na+] [Example 24, (5R),(6Z)-6-(5,5-Dioxo-4,5,6,7-tetrahydro-5λ^6-pyrazolo[5,1-c][1,4]thiazin-2-ylmethylene)-7-oxo-4-thia-1-azabicyclo[3.2.0]hept-2-ene-2-carboxylic acid, sodium salt]
- Minimal Inhibitory Concentration (MIC50) Data [1]: 4 µg/mL

SMILES: O=C([O-])C1=CS[C@@H]2/C(=C\c3cc4n(n3)CCC4)C(=O)N12.[Na+] [Example 8, (5R),(6Z)-6-(5,6-Dihydro-4H-pyrrolo[1,2-b]pyrazol-2-ylmethylene)-7-oxo-4-thia-1-azabicyclo[3.2.0]hept-2-ene-2-carboxylic acid, sodium salt]
- Minimal Inhibitory Concentration (MIC50) Data [1]: 4 µg/mL

SMILES: O=C([O-])C1=CS[C@@H]2/C(=C\c3cn4c(n3)CCC4)C(=O)N12.[Na+] [Example 6, (5R),(6Z)-6-(6,7-Dihydro-5H-pyrrolo[1,2-a]imidazol-2-ylmethylene)-7-oxo-4-thia-1-aza-bicyclo[3.2.0]hept-2-ene-2-carboxylic acid, sodium salt]
- Minimal Inhibitory Concentration (MIC50) Data [1]: 2 µg/mL
